Tested on: Lipoclean lipase
Assay: Storage stability of liquid Lipoclean lipase formulation: residual lipase activity (PNP-Palmitate hydrolysis, 405 nm) versus frozen reference
Type: biochemical
Conditions: 2% enzyme protein, sorbitol and glycerol, 0.08% Z-GAY-H, compared with frozen reference sample
Description: Lipoclean formulations, per se (LCLU/g) residual activities: The Lipase was formulated from crude concentrate with standard formulation ingredients (sorbitol and glycerol) with and without the serine protease inhibitor (2% enzyme protein, 0.08% Z-GAY-H added with a 1% DMSO solution). The solution was split into separate vials which were incubated at different temperature and times and compared in activity with a frozen reference sample frozen directly after mixing. The lipase activity was measured by ester bond hydrolysis in the substrate PNP-Palmitate (C:16) and releases PNP which is yellow and can be detected at 405 nm.

residual activities (lipase) (2 weeks, 50° C.): 71%
residual activities (lipase) (4 weeks, 40° C.): 70%
residual activities (lipase) (4 weeks, 50° C.): 56%
Substance: Z-GAY-H [0.08% serine protease inhibitor]

Source: patent publication US20120322715A1, “SERINE HYDROLASE FORMULATION” (NOVOZYMES A/S, priority 2010, published 2012)
